Experimental data: ChEMBL document CHEMBL1134989, “Synthesis and stability study of a modified phenylpropionic acid linker-based esterase-sensitive prodrug” (Bioorg Med Chem Lett, 2002)

Key:
[1] = Half-life in human plasma; format: ADME, cell-free
[2] = Half-life of the parent prodrug in plasma; format: ADME, cell-free; details: human
[3] = Half-life of the parent prodrug in porcine esterase solution; format: ADME, Sus scrofa; details: pig

| half-life [1] [min] | T1/2 [2] [min] | T1/2 [3] [min] | Compound |
| --- | --- | --- | --- |
| 52 | – | – | COc1ccc(NC(=O)CC(C)(C)c2c(OC)cc(OC)cc2OC(C)=O)cc1 |
| – | 53.7 | 11.9 | COc1ccc(NC(=O)CC(C)(C)c2c(C)cc(C)cc2OC(C)=O)cc1 |
